Measured values from US20240383875A1, “Benzimidazole Pyridine Derivatives” (Hoffmann-La Roche Inc., priority 2022, published 2024).
Each block holds one compound with its values, some of them ahead of it.

How the values were obtained:
Type in all cases: biochemical
SIK3 = SIK3 (Homo sapiens, UniProt Q9Y2K2); assay: Enzymatic activity assay SIK3, RapidFire mass spectrometry (phosphorylation of CHK-peptide); settings: RapidFire MS, inhibition of SIK3; read-out: SIK3 RF IC50
Outline: (§1)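 Human SIK1/2/3, 5/0.5/1.5 nM; 12.5 mM HEPES pH 7.0, 10 mM Mg acetate, 0.005% BSA. 30 min cpd pre-inc, + CHK-peptide (10 μM soln) + ATP (100 μM soln), 45 min RT. Formic acid stop; RF-MS phospho ratio; IC50.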

SIK1 = SIK1 (Homo sapiens, UniProt P57059); assay: Enzymatic activity assay SIK1, RapidFire mass spectrometry (phosphorylation of CHK-peptide); settings: RapidFire MS, inhibition of SIK1; read-out: SIK1 RF IC50
Outline: as §1

SIK2 = SIK2 (Homo sapiens, UniProt Q9H0K1); assay: Enzymatic activity assay SIK2, RapidFire mass spectrometry (phosphorylation of CHK-peptide); settings: RapidFire MS, inhibition of SIK2; read-out: SIK2 RF IC50
Outline: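 Read-out is the summed phospho-species fraction of CHK-peptide by RapidFire mass spectrometry, normalized between DMSO and 1 μM YKL-05-099. The reaction used 0.5 nM SIK2, 100 μM ATP and 10 μM peptide solutions in HEPES pH 7.0/10 mM magnesium acetate for 45 min at ambient temperature.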

SIK2, sequence (Q9H0K1 whole entry): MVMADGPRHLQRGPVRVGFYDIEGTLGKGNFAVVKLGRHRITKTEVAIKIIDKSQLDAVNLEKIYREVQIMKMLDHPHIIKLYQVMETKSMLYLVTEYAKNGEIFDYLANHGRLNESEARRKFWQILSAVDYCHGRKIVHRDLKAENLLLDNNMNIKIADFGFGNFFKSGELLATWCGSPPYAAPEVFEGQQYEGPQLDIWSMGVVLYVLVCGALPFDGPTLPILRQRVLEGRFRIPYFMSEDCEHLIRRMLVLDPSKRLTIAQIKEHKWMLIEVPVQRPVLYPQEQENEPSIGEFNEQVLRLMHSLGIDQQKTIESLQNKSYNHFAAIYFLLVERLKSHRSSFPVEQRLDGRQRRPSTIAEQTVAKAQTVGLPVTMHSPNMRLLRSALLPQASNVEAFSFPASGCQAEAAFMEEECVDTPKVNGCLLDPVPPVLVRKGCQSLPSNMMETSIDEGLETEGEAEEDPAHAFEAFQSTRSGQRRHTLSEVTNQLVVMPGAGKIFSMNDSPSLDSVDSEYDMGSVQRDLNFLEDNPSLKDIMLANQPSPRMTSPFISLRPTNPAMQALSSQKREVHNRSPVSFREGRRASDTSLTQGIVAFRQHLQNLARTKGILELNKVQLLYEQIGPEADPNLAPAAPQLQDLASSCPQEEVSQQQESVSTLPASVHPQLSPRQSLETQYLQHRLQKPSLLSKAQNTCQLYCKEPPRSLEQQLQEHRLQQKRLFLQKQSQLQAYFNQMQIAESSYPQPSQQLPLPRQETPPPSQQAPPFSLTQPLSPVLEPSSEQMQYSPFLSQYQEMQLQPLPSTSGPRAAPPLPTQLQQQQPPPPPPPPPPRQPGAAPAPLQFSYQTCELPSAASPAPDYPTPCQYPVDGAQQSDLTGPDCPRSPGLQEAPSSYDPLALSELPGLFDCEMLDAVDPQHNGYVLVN
SIK1, sequence (P57059 whole entry): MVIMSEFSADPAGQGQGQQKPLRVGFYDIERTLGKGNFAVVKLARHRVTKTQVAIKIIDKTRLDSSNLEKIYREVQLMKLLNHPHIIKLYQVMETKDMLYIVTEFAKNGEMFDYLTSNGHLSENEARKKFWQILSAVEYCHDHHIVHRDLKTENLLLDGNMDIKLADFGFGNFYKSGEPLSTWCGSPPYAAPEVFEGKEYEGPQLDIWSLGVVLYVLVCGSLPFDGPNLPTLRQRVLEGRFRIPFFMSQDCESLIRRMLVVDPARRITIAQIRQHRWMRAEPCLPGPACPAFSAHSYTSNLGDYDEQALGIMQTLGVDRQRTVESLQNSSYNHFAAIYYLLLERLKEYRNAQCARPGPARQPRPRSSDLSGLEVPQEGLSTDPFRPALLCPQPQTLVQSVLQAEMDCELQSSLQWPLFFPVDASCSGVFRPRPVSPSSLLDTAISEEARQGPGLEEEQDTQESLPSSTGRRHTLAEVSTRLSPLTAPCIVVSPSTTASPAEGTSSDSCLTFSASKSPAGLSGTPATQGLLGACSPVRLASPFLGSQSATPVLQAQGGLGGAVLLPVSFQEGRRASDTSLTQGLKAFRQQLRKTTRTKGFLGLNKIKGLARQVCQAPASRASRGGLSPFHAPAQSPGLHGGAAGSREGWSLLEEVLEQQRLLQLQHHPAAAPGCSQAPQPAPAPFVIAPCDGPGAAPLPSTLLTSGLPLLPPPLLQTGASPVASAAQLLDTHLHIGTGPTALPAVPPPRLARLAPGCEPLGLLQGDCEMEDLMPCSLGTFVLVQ
SIK3, sequence (Q9Y2K2 whole entry): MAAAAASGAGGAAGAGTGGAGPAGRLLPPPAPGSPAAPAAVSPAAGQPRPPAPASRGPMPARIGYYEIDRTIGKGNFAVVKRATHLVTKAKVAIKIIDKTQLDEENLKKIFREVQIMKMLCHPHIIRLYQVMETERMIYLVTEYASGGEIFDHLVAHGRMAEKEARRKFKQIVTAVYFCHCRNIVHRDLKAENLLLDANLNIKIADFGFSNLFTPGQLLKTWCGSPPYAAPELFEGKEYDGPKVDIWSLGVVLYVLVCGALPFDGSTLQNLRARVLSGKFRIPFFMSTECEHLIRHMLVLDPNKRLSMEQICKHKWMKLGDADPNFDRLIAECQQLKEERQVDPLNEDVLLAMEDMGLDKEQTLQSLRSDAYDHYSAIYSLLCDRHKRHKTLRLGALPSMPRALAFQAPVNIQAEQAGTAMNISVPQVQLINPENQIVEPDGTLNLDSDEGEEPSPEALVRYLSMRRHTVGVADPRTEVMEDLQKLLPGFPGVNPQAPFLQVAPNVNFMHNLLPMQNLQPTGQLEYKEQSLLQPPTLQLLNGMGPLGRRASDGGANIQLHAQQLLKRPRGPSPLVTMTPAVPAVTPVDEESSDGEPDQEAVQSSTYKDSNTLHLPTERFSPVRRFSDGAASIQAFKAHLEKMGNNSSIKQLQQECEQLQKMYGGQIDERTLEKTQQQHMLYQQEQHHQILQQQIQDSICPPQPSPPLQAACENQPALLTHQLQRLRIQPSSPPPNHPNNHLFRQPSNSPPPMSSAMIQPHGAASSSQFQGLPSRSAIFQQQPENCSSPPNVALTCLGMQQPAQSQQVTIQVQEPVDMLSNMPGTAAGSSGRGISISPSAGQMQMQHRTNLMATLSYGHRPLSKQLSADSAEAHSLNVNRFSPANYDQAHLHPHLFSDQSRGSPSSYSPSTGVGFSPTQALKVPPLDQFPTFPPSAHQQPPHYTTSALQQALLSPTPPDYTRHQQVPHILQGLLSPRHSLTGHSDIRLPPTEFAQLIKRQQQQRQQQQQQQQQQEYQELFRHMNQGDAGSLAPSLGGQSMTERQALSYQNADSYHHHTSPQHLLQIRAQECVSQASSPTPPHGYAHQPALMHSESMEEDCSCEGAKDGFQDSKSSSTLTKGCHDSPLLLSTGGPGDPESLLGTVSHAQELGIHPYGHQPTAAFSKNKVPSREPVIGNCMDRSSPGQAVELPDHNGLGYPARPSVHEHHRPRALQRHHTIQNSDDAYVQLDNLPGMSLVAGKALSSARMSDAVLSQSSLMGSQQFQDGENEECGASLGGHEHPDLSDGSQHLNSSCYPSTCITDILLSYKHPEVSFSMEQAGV

SMILES: Cc1ccc(Nc2ccc3ncn(-c4ccc(C(C)O)c(NCC5(C#N)CC5)n4)c3c2)nn1 (stereo not drawn) [Example 117, 1-[[[3-(1-Hydroxyethyl)-6-[6-[(6-methylpyridazin-3-yl)amino]benzimidazol-1-yl]-2-pyridyl]amino]methyl]cyclopropanecarbonitrile; formic acid]
- IC50 (SIK3): 365 nM
- IC50 (SIK1): 3530 nM
- IC50 (SIK2): 1020 nM

SMILES: Cc1cc(C#N)nn1-c1nc(-n2cnc3ccc(N4CCC[C@H]4C#N)cc32)ccc1C(C)O (stereo partly drawn) [Example 341, 1-[6-[6-[(2S)-2-cyanopyrrolidin-1-yl]benzimidazol-1-yl]-3-(1-hydroxyethyl)-2-pyridyl]-5-methyl-pyrazole-3-carbonitrile]
- IC50 (SIK3): 124 nM
- IC50 (SIK1): 14 nM
- IC50 (SIK2): 15.1 nM

SMILES: CCc1cc(C(F)F)nn1-c1nc(-n2cnc3ccc(Nc4ccc(C)nn4)cc32)ccc1C(C)O (stereo not drawn) [Example 368, 1-[2-[3-(difluoromethyl)-5-ethyl-pyrazol-1-yl]-6-[6-[(6-methylpyridazin-3-yl)amino]benzimidazol-1-yl]-3-pyridyl]ethanol]
- IC50 (SIK3): 1100 nM
- IC50 (SIK1): 106 nM
- IC50 (SIK2): 77.1 nM

SMILES: COc1cc2ncn(-c3ccc(C(C)O)c(-c4ccc(F)cc4OC)n3)c2cc1OC (stereo not drawn) [Example 17, 1-(6-(5,6-Dimethoxy-1H-benzo[d]imidazol-1-yl)-2-(4-fluoro-2-methoxyphenyl)pyridin-3-yl)ethan-1-ol]
- IC50 (SIK3): 1140 nM
- IC50 (SIK1): 327 nM
- IC50 (SIK2): 155 nM

SMILES: Cc1ccc(Nc2ccc3ncn(-c4ccc(C(C)O)c(N5CC(C)(C#N)C5)n4)c3c2)nn1 (stereo not drawn) [Example 184, 1-[3-(1-Hydroxyethyl)-6-[6-[(6-methylpyridazin-3-yl)amino]benzimidazol-1-yl]-2-pyridyl]-3-methyl-azetidine-3-carbonitrile]
- IC50 (SIK3): 1900 nM
- IC50 (SIK1): 1990 nM
- IC50 (SIK2): 2500 nM

SMILES: COc1cc2ncn(-c3ccc(CO)c(N4CCCC4)n3)c2cc1OC [Example 27, (6-(5,6-Dimethoxy-1H-benzo[d]imidazol-1-yl)-2-(pyrrolidin-1-yl)pyridin-3-yl)methanol]
- IC50 (SIK3): 761 nM
- IC50 (SIK1): 535 nM
- IC50 (SIK2): 473 nM

SMILES: Cc1ccc(Nc2cc3ncn(-c4ccc([C@@H](C)O)c(-n5nc(C#N)cc5C)n4)c3cc2F)nn1 [Example 237, 1-[6-[6-Fluoro-5-[(6-methylpyridazin-3-yl)amino]benzimidazol-1-yl]-3-[(1R)-1-hydroxyethyl]-2-pyridyl]-5-methyl-pyrazole-3-carbonitrile]
- IC50 (SIK3): 52.8 nM
- IC50 (SIK1): 7820 nM
- IC50 (SIK2): 49.7 nM

SMILES: Cc1ccc(Nc2ccc3c(c2)ncn3-c2nc(-n3nc(C#N)cc3C)c(C(C)O)cc2Cl)nn1 (stereo not drawn) [Example 245, 1-[5-Chloro-3-(1-hydroxyethyl)-6-[5-[(6-methylpyridazin-3-yl)amino]benzimidazol-1-yl]-2-pyridyl]-5-methyl-pyrazole-3-carbonitrile; formic acid]
- IC50 (SIK3): 67.4 nM
- IC50 (SIK1): 6410 nM
- IC50 (SIK2): 72.5 nM

These reach a lower IC50 (SIK3). Values come first.

- IC50 (SIK3): 2.5 nM
- IC50 (SIK1): 869 nM
- IC50 (SIK2): 21.1 nM
SMILES: Cc1ccc(Nc2ccc3ncn(-c4ccc(C(C)O)c(N5CC[C@@H](C#N)C5)n4)c3c2)nn1 (stereo partly drawn) [Example 106, (3R)-1-[3-(1-Hydroxyethyl)-6-[6-[(6-methylpyridazin-3-yl)amino]benzimidazol-1-yl]-2-pyridyl]pyrrolidine-3-carbonitrile]

- IC50 (SIK3): 46.2 nM
- IC50 (SIK1): 6740 nM
- IC50 (SIK2): 154 nM
SMILES: Cc1ccc(Nc2ccc3c(c2)ncn3-c2ccc(C(C)O)c(-c3ccc(O)cc3C#N)n2)nn1 (stereo not drawn) [Example 220, 5-Hydroxy-2-[3-(1-hydroxyethyl)-6-[5-[(6-methylpyridazin-3-yl)amino]benzimidazol-1-yl]-2-pyridyl]benzonitrile; formic acid]

- IC50 (SIK3): 1.7 nM
- IC50 (SIK1): 245 nM
- IC50 (SIK2): 0.9 nM
SMILES: Cc1ccc(Nc2cc3ncn(-c4ccc(C(C)O)c(-c5cn(CC6CC6)nc5C)n4)c3cc2F)nn1 (stereo not drawn) [Example 356, 1-[2-[1-(cyclopropylmethyl)-3-methyl-pyrazol-4-yl]-6-[6-fluoro-5-[(6-methylpyridazin-3-yl)amino]benzimidazol-1-yl]-3-pyridyl]ethanol]

- IC50 (SIK3): 1.7 nM
- IC50 (SIK1): 270 nM
- IC50 (SIK2): 1.6 nM
SMILES: COCCn1cc(-c2nc(-n3cnc4cc(Nc5ccc(C)nn5)ccc43)ccc2C(C)O)c(C)n1 (stereo not drawn) [Example 265, 1-[2-[1-(2-Methoxyethyl)-3-methyl-pyrazol-4-yl]-6-[5-[(6-methylpyridazin-3-yl)amino]benzimidazol-1-yl]-3-pyridyl]ethanol; formic acid]

- IC50 (SIK3): 6.4 nM
- IC50 (SIK1): 3820 nM
- IC50 (SIK2): 42.6 nM
SMILES: Cc1ccc(Nc2ccc3c(c2)ncn3-c2ccc(C(C)O)c(-n3nc(C)cc3C)n2)nn1 (stereo not drawn) [Example 108, 1-[2-(3,5-Dimethylpyrazol-1-yl)-6-[5-[(6-methylpyridazin-3-yl)amino]benzimidazol-1-yl]-3-pyridyl]ethanol; formic acid]

- IC50 (SIK3): 16.1 nM
- IC50 (SIK1): 22 nM
- IC50 (SIK2): 9.5 nM
SMILES: Cc1cc(C#N)nn1-c1nc(-n2cnc3cc(N4CCC[C@H]4C#N)ccc32)ccc1C(C)O (stereo partly drawn) [Example 342, 1-[6-[5-[(2S)-2-cyanopyrrolidin-1-yl]benzimidazol-1-yl]-3-(1-hydroxyethyl)-2-pyridyl]-5-methyl-pyrazole-3-carbonitrile]

- IC50 (SIK3): 0.5 nM
- IC50 (SIK1): 5 nM
- IC50 (SIK2): 0.2 nM
SMILES: Cc1ccc(Nc2cc3ncn(-c4ccc([C@H](C)O)c(-n5nc(OC(F)F)cc5C)n4)c3cc2OC2COC2)nn1 [Example 383, (1S)-1-[2-[3-(difluoromethoxy)-5-methyl-pyrazol-1-yl]-6-[5-[(6-methylpyridazin-3-yl)amino]-6-(oxetan-3-yloxy)benzimidazol-1-yl]-3-pyridyl]ethanol]

- IC50 (SIK3): 22.9 nM
- IC50 (SIK1): 321 nM
- IC50 (SIK2): 12.9 nM
SMILES: Cc1ccc(Nc2cc3ncn(-c4ccc(C(C)O)c(-n5nc(OC(F)F)cc5C)n4)c3cc2CC2COC2)nn1 (stereo not drawn) [Example 407, 1-[2-[3-(difluoromethoxy)-5-methyl-pyrazol-1-yl]-6-[5-[(6-methylpyridazin-3-yl)amino]-6-(oxetan-3-ylmethyl)benzimidazol-1-yl]-3-pyridyl]ethanol]

- IC50 (SIK3): 0.8 nM
- IC50 (SIK1): 54 nM
- IC50 (SIK2): 2.2 nM
SMILES: Cc1cc(C#N)nn1-c1nc(-n2cnc3cc(Nc4ccc(C(F)(F)F)nn4)ccc32)ccc1C(C)O (stereo not drawn) [Example 249, 1-[3-(1-Hydroxyethyl)-6-[5-[[6-(trifluoromethyl)pyridazin-3-yl]amino]benzimidazol-1-yl]-2-pyridyl]-5-methyl-pyrazole-3-carbonitrile]

- IC50 (SIK3): 3.6 nM
- IC50 (SIK1): 1050 nM
- IC50 (SIK2): 5.3 nM
SMILES: Cc1ccc(Nc2cc3ncn(-c4ccc(C(C)O)c(-n5nc(Cl)cc5C)n4)c3cc2F)nn1 (stereo not drawn) [Example 355, 1-[2-(3-chloro-5-methyl-pyrazol-1-yl)-6-[6-fluoro-5-[(6-methylpyridazin-3-yl)amino]benzimidazol-1-yl]-3-pyridyl]ethanol]

- IC50 (SIK3): 4.5 nM
- IC50 (SIK1): 10 nM
- IC50 (SIK2): 2 nM
SMILES: Cc1cc(C#N)nn1-c1nc(-n2cnc3cc(-c4cnc(N5CCCC5=O)o4)ccc32)ccc1C(C)O (stereo not drawn) [Example 392, 1-[3-(1-hydroxyethyl)-6-[5-[2-(2-oxopyrrolidin-1-yl)oxazol-5-yl]benzimidazol-1-yl]-2-pyridyl]-5-methyl-pyrazole-3-carbonitrile]

- IC50 (SIK3): 37.2 nM
- IC50 (SIK1): 273 nM
- IC50 (SIK2): 95.4 nM
SMILES: Cc1cc(C#N)nn1-c1nc(-n2cnc3cc(Nc4ccc(C5CCCN5C5COC5)nn4)ccc32)ccc1C(C)O (stereo not drawn) [Example 304, 1-[3-(1-hydroxyethyl)-6-[5-[[6-[1-(oxetan-3-yl)pyrrolidin-2-yl]pyridazin-3-yl]amino]benzimidazol-1-yl]-2-pyridyl]-5-methyl-pyrazole-3-carbonitrile]
